# From PubChem BioAssay AID504572 (Johns Hopkins Ion Channel Center, 2011)
# pIC50: −log10 of the molar value.
# Target: Short transient receptor potential channel 6 (Mus musculus) (UniProt Q61143)
# Assay: mouse TRPC6 channel inhibitors, SAR follow-up, HEK293 cells, membrane potential dye, IC50 (AID 504572)
# Settings: acetylcholine-evoked membrane potential dye, FDSS
# Short transient receptor potential channel 6 (Mus musculus), sequence (Q61143 whole entry, looked up): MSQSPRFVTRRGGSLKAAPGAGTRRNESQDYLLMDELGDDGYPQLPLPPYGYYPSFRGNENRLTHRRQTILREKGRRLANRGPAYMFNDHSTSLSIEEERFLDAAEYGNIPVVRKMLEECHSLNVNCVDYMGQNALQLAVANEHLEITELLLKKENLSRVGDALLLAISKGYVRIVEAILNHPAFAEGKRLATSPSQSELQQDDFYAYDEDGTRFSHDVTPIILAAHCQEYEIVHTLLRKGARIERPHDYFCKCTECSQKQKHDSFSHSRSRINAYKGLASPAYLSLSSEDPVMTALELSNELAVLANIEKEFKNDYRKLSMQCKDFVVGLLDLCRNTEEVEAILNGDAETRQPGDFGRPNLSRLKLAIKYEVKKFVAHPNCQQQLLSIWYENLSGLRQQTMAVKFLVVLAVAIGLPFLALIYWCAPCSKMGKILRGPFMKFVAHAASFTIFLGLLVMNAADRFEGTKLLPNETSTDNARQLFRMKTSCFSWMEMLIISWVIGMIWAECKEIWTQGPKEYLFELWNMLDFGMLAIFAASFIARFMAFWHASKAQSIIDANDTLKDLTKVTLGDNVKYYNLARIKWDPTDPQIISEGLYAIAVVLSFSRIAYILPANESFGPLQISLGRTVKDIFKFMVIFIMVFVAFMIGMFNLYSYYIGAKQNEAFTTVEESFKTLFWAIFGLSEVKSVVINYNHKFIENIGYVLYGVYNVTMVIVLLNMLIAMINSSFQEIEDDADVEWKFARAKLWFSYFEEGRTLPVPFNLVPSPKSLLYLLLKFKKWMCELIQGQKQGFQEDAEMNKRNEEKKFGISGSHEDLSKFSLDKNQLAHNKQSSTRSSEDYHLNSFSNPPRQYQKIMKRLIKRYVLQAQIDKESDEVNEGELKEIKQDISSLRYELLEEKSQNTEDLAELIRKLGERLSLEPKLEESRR
row,Compound,pIC50
1,COc1ccccc1CNc1ccc2c(c1)ncn2C(C)(C)C,5.26
2,CC(C)(C)n1cnc2cc(NCc3ccccc3Cl)ccc21,5.32
3,CC(C)(C)n1cnc2cc(NCc3ccc(Cl)cc3Cl)ccc21,5.19

# Stronger by pIC50, values ahead:
row,pIC50,Compound
1,5.57,COc1ccc(OC)c(CNc2ccc3c(c2)ncn3C(C)(C)C)c1
2,5.60,CCOc1ccc(CNc2ccc3c(c2)ncn3C(C)(C)C)cc1
3,5.67,CCOc1ccccc1CNc1ccc2c(c1)ncn2C(C)(C)C
